From patent publication US9549558B2, “Herbicidal azines” (BASF SE, priority 2012, dated 2017)

What was measured:
Type in all cases: in vivo
[1] = system: POLCO (Polygonum convolvulus); assay: greenhouse post-emergence herbicidal test
Excerpt: (§1) The culture containers used were plastic flowerpots containing loamy sand with approximately 3.0% of humus as the substrate. The seeds of the test plants were sown separately for each species.
(§2) For the post-emergence treatment, the test plants were first grown to a height of 3 to 15 cm, depending on the plant habit, and only then treated with the active ingredients which had been suspended or emulsified in water. For this purpose, the test plants were either sown directly and grown in the same containers, or they were first grown separately as seedlings and transplanted into the test containers a few days prior to treatment.
(§3) Depending on the species, the plants were kept at 10-25° C. or 20-35° C., respectively.
(§4) The test period extended over 2 to 4 weeks. During this time, the plants were tended, and their response to the individual treatments was evaluated.
(§5) Evaluation was carried out using a scale from 0 to 100. 100 means no emergence of the plants, or complete destruction of at least the aerial moieties, and 0 means no damage, or normal course of growth. A moderate herbicidal activity is given at values of at least 60, a good herbicidal activity is given at values of at least 70, and a very good herbicidal activity is given at values of at least 85.
(§6) The plants used in the greenhouse experiments were of the following species: […]

[2] = system: AMARE (Amaranthus retroflexus); assay: greenhouse post-emergence herbicidal test
Excerpt: as §1, §2, §3, §4, §5, §6

[3] = system: CHEAL (Chenopodium album); assay: greenhouse post-emergence herbicidal test
Excerpt: as §1, §2, §3, §4, §5, §6

[4] = system: ABUTH (Abutilon theophrasti); assay: greenhouse post-emergence herbicidal test
Excerpt: as §1, §2, §3, §4, §5, §6

VIOAR (Viola arvensis) = assay: greenhouse pre-emergence herbicidal test
Excerpt: as §1
(§7) For the pre-emergence treatment, the active ingredients, which had been suspended or emulsified in water, were applied directly after sowing by means of finely distributing nozzles. The containers were irrigated gently to promote germination and growth and subsequently covered with transparent plastic hoods until the plants had rooted. This cover caused uniform germination of the test plants, unless this had been impaired by the active ingredients.
as §3, §4, §5, §6

[5] = system: CAPBP (Capsella bursa-pastoris); assay: greenhouse pre-emergence herbicidal test; settings: CAPBP
Excerpt: as §1, §7, §3, §4, §5, §6

SETVI (Setaria viridis) = assay: greenhouse pre-emergence herbicidal test
Excerpt: as §1, §7, §3, §4, §5, §6

STEME (Stellaria media) = assay: greenhouse pre-emergence herbicidal test
Excerpt: as §1, §7, §3, §4, §5, §6

[6] = system: ECHCG (Echinocloa crus-galli); assay: greenhouse pre-emergence herbicidal test; settings: 125 g/ha
Excerpt: as §1, §7, §3, §4, §5, §6

In the case of CC(C)c1nc(N)nc(Nc2c(F)c(F)cc(F)c2F)n1 [Example 6], the herbicidal activity ([1]; 0.031 kg/ha) is reported as “good (a good herbicidal activity is given at values of at least 70)” and the herbicidal activity ([2]; 0.031 kg/ha) is reported as “very good (a very good herbicidal activity is given at values of at least 85)”.

CC(F)(F)c1nc(N)nc(Nc2c(F)c(F)cc(F)c2F)n1 [Example 8] was tested, and the herbicidal activity ([3]; 0.062 kg/ha) was “very good (a very good herbicidal activity is given at values of at least 85)” and the herbicidal activity ([4]; 0.062 kg/ha) was “very good (a very good herbicidal activity is given at values of at least 85)”.

With CC(F)c1nc(N)nc(Nc2c(F)cccc2F)n1 (stereo not drawn) [Example 12] the herbicidal activity (VIOAR (Viola arvensis); 0.125 kg/ha) was “very good (a very good herbicidal activity is given at values of at least 85)” and the herbicidal activity ([5]; 0.125 kg/ha) was “very good (a very good herbicidal activity is given at values of at least 85)”.

CC(F)c1nc(N)nc(Nc2c(F)cc(F)cc2F)n1 (stereo not drawn) [Example 15] was tested, and the herbicidal activity (SETVI (Setaria viridis); 0.0625 kg/ha) was “moderate (A moderate herbicidal activity is given at values of at least 60)”.

CC(F)c1nc(N)nc(Nc2c(F)c(F)cc(F)c2F)n1 (stereo not drawn) [Example 17] was tested, and the herbicidal activity ([1]; 0.125 kg/ha) was “very good (a very good herbicidal activity is given at values of at least 85)” and the herbicidal activity ([4]; 0.125 kg/ha) was “very good (a very good herbicidal activity is given at values of at least 85)”.

For CC(F)c1nc(N)nc(Nc2c(F)cc(Br)cc2F)n1 (stereo not drawn) [Example 19], the herbicidal activity (VIOAR (Viola arvensis); 0.125 kg/ha) was “good (a good herbicidal activity is given at values of at least 70)”.

With CC(C)(F)c1nc(N)nc(Nc2ccc(F)cc2F)n1 [Example 22] the herbicidal activity (VIOAR (Viola arvensis); 0.125 kg/ha) was “good (a good herbicidal activity is given at values of at least 70)”.

In the case of CC(C)(F)c1nc(N)nc(Nc2cc(F)cc(F)c2)n1 [Example 25], the herbicidal activity (VIOAR (Viola arvensis); 0.125 kg/ha) is reported as “very good (a very good herbicidal activity is given at values of at least 85)”.

In the case of CC(C)(F)c1nc(N)nc(Nc2ccc(F)c(F)c2F)n1 [Example 26], the herbicidal activity (VIOAR (Viola arvensis); 0.125 kg/ha) is reported as “very good (a very good herbicidal activity is given at values of at least 85)” and the herbicidal activity ([5]; 0.125 kg/ha) is reported as “good (a good herbicidal activity is given at values of at least 70)”.

In the case of CC(C)(F)c1nc(N)nc(Nc2cc(F)c(F)c(F)c2)n1 [Example 29], the herbicidal activity (VIOAR (Viola arvensis); 0.125 kg/ha) is reported as “moderate (A moderate herbicidal activity is given at values of at least 60)”.

CC(C)(F)c1nc(N)nc(Nc2c(F)cccc2C#N)n1 [Example 38] was tested, and the herbicidal activity ([3]; 0.125 kg/ha) was “very good (a very good herbicidal activity is given at values of at least 85)” and the herbicidal activity ([2]; 0.125 kg/ha) was “very good (a very good herbicidal activity is given at values of at least 85)”.

With Cc1ccc(F)c(Nc2nc(N)nc(C(C)(C)F)n2)c1F [Example 40] the herbicidal activity ([3]; 0.031 kg/ha) was “very good (a very good herbicidal activity is given at values of at least 85)” and the herbicidal activity ([2]; 0.031 kg/ha) was “very good (a very good herbicidal activity is given at values of at least 85)”.

COc1ccc(F)c(F)c1Nc1nc(N)nc(C(C)(C)F)n1 [Example 61] was tested, and the herbicidal activity ([1]; 0.062 kg/ha) was “very good (a very good herbicidal activity is given at values of at least 85)” and the herbicidal activity ([2]; 0.062 kg/ha) was “very good (a very good herbicidal activity is given at values of at least 85)”.

CCC(C)c1nc(N)nc(Nc2c(F)c(F)c(F)c(F)c2F)n1 (stereo not drawn) [Example 62] was tested, and the herbicidal activity (SETVI (Setaria viridis); 125 g/ha) was “very good (a very good herbicidal activity is given at values of at least 85)”, the herbicidal activity (STEME (Stellaria media); 125 g/ha) was “very good (a very good herbicidal activity is given at values of at least 85)” and the herbicidal activity ([5]; 125 g/ha) was “very good (a very good herbicidal activity is given at values of at least 85)”.

CC(C)(F)c1nc(N)nc(Nc2c(F)cc(C#N)cc2F)n1 [Example 71] was tested, and the herbicidal activity ([1]; 125 g/ha) was “good (a good herbicidal activity is given at values of at least 70)” and the herbicidal activity ([3]; 125 g/ha) was “very good (a very good herbicidal activity is given at values of at least 85)”.

With Nc1nc(CCC(F)(F)F)nc(Nc2c(F)c(F)c(F)c(F)c2F)n1 [Example 73] the herbicidal activity (SETVI (Setaria viridis); 250 g/ha) was “very good (a very good herbicidal activity is given at values of at least 85)”, the herbicidal activity (STEME (Stellaria media); 250 g/ha) was “very good (a very good herbicidal activity is given at values of at least 85)” and the herbicidal activity ([5]; 250 g/ha) was “very good (a very good herbicidal activity is given at values of at least 85)”.

For CC(C)(C)c1nc(N)nc(Nc2c(F)ccc(Cl)c2F)n1 [Example 81], the herbicidal activity (STEME (Stellaria media); 125 g/ha) was “very good (a very good herbicidal activity is given at values of at least 85)”, the herbicidal activity (VIOAR (Viola arvensis); 125 g/ha) was “very good (a very good herbicidal activity is given at values of at least 85)” and the herbicidal activity ([5]; 125 g/ha) was “very good (a very good herbicidal activity is given at values of at least 85)”.

In the case of CC(C)(Cl)c1nc(N)nc(Nc2c(F)ccc(Cl)c2F)n1 [Example 108], the herbicidal activity (STEME (Stellaria media); 250 g/ha) is reported as “very good (a very good herbicidal activity is given at values of at least 85)”, the herbicidal activity (VIOAR (Viola arvensis); 250 g/ha) is reported as “very good (a very good herbicidal activity is given at values of at least 85)” and the herbicidal activity ([5]; 250 g/ha) is reported as “very good (a very good herbicidal activity is given at values of at least 85)”.

With CC(C)(Cl)c1nc(N)nc(Nc2c(F)c(F)cc(F)c2F)n1 [Example 111] the herbicidal activity (SETVI (Setaria viridis); 125 g/ha) was “very good (a very good herbicidal activity is given at values of at least 85)”, the herbicidal activity [6] was “very good (a very good herbicidal activity is given at values of at least 85)” and the herbicidal activity ([5]; 125 g/ha) was “very good (a very good herbicidal activity is given at values of at least 85)”.

With Nc1nc(Nc2c(F)ccc(F)c2F)nc(C(F)(F)F)n1 [Example 127] the herbicidal activity ([1]; 1000 g/ha) was “good (a good herbicidal activity is given at values of at least 70)”, the herbicidal activity ([3]; 1000 g/ha) was “very good (a very good herbicidal activity is given at values of at least 85)” and the herbicidal activity ([2]; 1000 g/ha) was “very good (a very good herbicidal activity is given at values of at least 85)”.

Nc1nc(Nc2c(F)c(F)cc(F)c2F)nc(C(F)(F)F)n1 [Example 132] was tested, and the herbicidal activity ([1]; 500 g/ha) was “very good (a very good herbicidal activity is given at values of at least 85)”, the herbicidal activity ([3]; 500 g/ha) was “very good (a very good herbicidal activity is given at values of at least 85)” and the herbicidal activity ([2]; 500 g/ha) was “very good (a very good herbicidal activity is given at values of at least 85)”.

In the case of CC(F)(F)c1nc(N)nc(Nc2c(F)cc(F)cc2F)n1 [Example 138], the herbicidal activity (STEME (Stellaria media); 125 g/ha) is reported as “very good (a very good herbicidal activity is given at values of at least 85)”, the herbicidal activity (VIOAR (Viola arvensis); 125 g/ha) is reported as “very good (a very good herbicidal activity is given at values of at least 85)” and the herbicidal activity ([5]; 125 g/ha) is reported as “very good (a very good herbicidal activity is given at values of at least 85)”.

In the case of Nc1nc(Nc2c(F)cc(F)cc2F)nc(C2CC2)n1 [Example 143], the herbicidal activity ([1]; 500 g/ha) is reported as “good (a good herbicidal activity is given at values of at least 70)”, the herbicidal activity ([3]; 500 g/ha) is reported as “very good (a very good herbicidal activity is given at values of at least 85)” and the herbicidal activity ([2]; 500 g/ha) is reported as “very good (a very good herbicidal activity is given at values of at least 85)”.

With Nc1nc(Nc2c(F)c(F)c(F)c(F)c2F)nc(C(F)(F)Cl)n1 [Example 146] the herbicidal activity ([1]; 500 g/ha) was “very good (a very good herbicidal activity is given at values of at least 85)”, the herbicidal activity ([3]; 500 g/ha) was “very good (a very good herbicidal activity is given at values of at least 85)” and the herbicidal activity ([2]; 500 g/ha) was “very good (a very good herbicidal activity is given at values of at least 85)”.

For CCC(C)(F)c1nc(NC(C)=O)nc(Nc2c(F)c(F)cc(F)c2F)n1 (stereo not drawn) [Example 207], the herbicidal activity (SETVI (Setaria viridis); 125 g/ha) was “very good (a very good herbicidal activity is given at values of at least 85)”, the herbicidal activity (STEME (Stellaria media); 125 g/ha) was “very good (a very good herbicidal activity is given at values of at least 85)” and the herbicidal activity ([5]; 125 g/ha) was “very good (a very good herbicidal activity is given at values of at least 85)”.

Nc1nc(Nc2c(F)c(F)c(Br)c(F)c2F)nc(C2CCCCC2)n1 [Example 209] was tested, and the herbicidal activity (STEME (Stellaria media); 250 g/ha) was “very good (a very good herbicidal activity is given at values of at least 85)”, the herbicidal activity (VIOAR (Viola arvensis); 250 g/ha) was “good (a good herbicidal activity is given at values of at least 70)” and the herbicidal activity ([5]; 250 g/ha) was “good (a good herbicidal activity is given at values of at least 70)”.

Nc1nc(Nc2c(F)c(F)c(Br)c(F)c2F)nc(C2CCCC2)n1 [Example 210] was tested, and the herbicidal activity (STEME (Stellaria media); 250 g/ha) was “very good (a very good herbicidal activity is given at values of at least 85)”, the herbicidal activity (VIOAR (Viola arvensis); 250 g/ha) was “very good (a very good herbicidal activity is given at values of at least 85)” and the herbicidal activity ([5]; 250 g/ha) was “very good (a very good herbicidal activity is given at values of at least 85)”.

With Nc1nc(C2CC2)nc(N(C(=O)C2CC2)c2c(F)c(F)cc(F)c2F)n1 [Example 285] the herbicidal activity ([3]; 62 g/ha) was “good (a good herbicidal activity is given at values of at least 70)” and the herbicidal activity ([2]; 62 g/ha) was “very good (a very good herbicidal activity is given at values of at least 85)”.

With Nc1nc(C2=CCCCC2)nc(N(C(=O)C2=CCCCC2)c2c(F)c(F)c(F)c(F)c2F)n1 [Example 303] the herbicidal activity ([2]; 500 g/ha) was “good (a good herbicidal activity is given at values of at least 70)” and the herbicidal activity ([4]; 500 g/ha) was “good (a good herbicidal activity is given at values of at least 70)”.
